Reference: patent US7649093B2, “Naphthalene compounds as selective estrogen receptor modulators” (Glaxo Smith Kline LLC, priority 2004, dated 2010)

Row | Structure (SMILES) | melting point
1 | COCc1cc2ccccc2c(Oc2ccc(/C=C/C(=O)O)cc2)c1-c1ccccc1 | 76 to 79 °C
2 | CC(C)Cc1cc2cc(O)ccc2c(Oc2ccc(/C=C/C(=O)O)cc2)c1-c1ccccc1 [Example 17, (2E)-3-(4-{[6-Hydroxy-3-(2-methylpropyl)-2-phenyl-1-naphthalenyl]oxy}phenyl)-2-propenoic acid] | 126 to 128 °C
3 | CCCc1cc2cc(O)ccc2c(Oc2ccc(/C=C/C(=O)O)cc2)c1-c1ccccc1 [Example 16, (2E)-3-{4-[(6-Hydroxy-2-phenyl-3-propyl-1-naphthalenyl)oxy]phenyl}-2-propenoic acid] | 120 to 122 °C
4 | Cc1cc2cc(O)ccc2c(Oc2ccc(/C=C/C(=O)O)cc2)c1-c1ccc(O)cc1 [Example 10, (2E)-3-(4-{[6-Hydroxy-2-(4-hydroxyphenyl)-3-methyl-1-naphthalenyl]oxy}phenyl)-2-propenoic acid] | 162 to 164 °C
5 | CCCCCc1cc2cc(O)ccc2c(Oc2ccc(/C=C/C(=O)O)cc2)c1-c1ccccc1 [Example 18, (2E)-3-{4-[(6-Hydroxy-3-pentyl-2-phenyl-1-naphthalenyl)oxy]phenyl}-2-propenoic acid] | 110 to 113 °C
6 | CCCc1cc2cc(O)c(F)cc2c(Oc2ccc(/C=C/C(=O)O)cc2)c1-c1ccccc1 [Example 20, (2E)-3-{4-[(7-Fluoro-6-hydroxy-2-phenyl-3-propyl-1-naphthalenyl)oxy]phenyl}-2-propenoic acid] | 118 to 120 °C
7 | CCCCc1cc2ccccc2c(Oc2ccc(/C=C/C(=O)O)cc2)c1-c1ccc(O)cc1 | 107 to 109 °C
8 | O=C(O)c1ccc(Oc2c(-c3ccc(O)cc3)c(C(F)(F)F)cc3ccccc23)cc1 [Example 28, 4-{[2-(4-Hydroxyphenyl)-3-(trifluoromethyl)-1-naphthalenyl]oxy}benzoic acid] | 244 to 245 °C
9 | CCCCCCCCc1cc2cc(O)ccc2c(Oc2ccc(/C=C/C(=O)O)cc2)c1-c1ccccc1 [Example 29, (2E)-3-{4-[(6-Hydroxy-3-octyl-2-phenyl-1-naphthalenyl)oxy]phenyl}-2-propenoic acid] | 163 to 164 °C
10 | CC(C)c1cc2cc(O)ccc2c(Oc2ccc(/C=C/C(=O)O)cc2)c1-c1ccccc1 [Example 13, (2E)-3-(4-{[6-Hydroxy-3-(1-methylethyl)-2-phenyl-1-naphthalenyl]oxy}phenyl)-2-propenoic acid] | 198 to 199 °C
11 | O=C(O)/C=C/c1ccc(Oc2c(-c3ccccc3)c(C(F)(F)F)cc3ccccc23)cc1 [Example 27, (2E)-3-(4-{[2-Phenyl-3-(trifluoromethyl)-1-naphthalenyl]oxy}phenyl)-2-propenoic acid] | 210 to 211 °C
12 | O=C(O)/C=C/c1ccc(Oc2c(-c3ccccc3)c(C3CC3)cc3cc(O)ccc23)cc1 [Example 22, (2E)-3-{4-[(3-Cyclopropyl-6-hydroxy-2-phenyl-1-naphthalenyl)oxy]phenyl}-2-propenoic acid] | 242 to 243 °C
13 | CCCCc1cc2cc(O)ccc2c(Oc2ccc(/C=C/C(=O)O)cc2)c1-c1ccccc1 [Example 14, (2E)-3-{4-[(3-Butyl-6-hydroxy-2-phenyl-1-naphthalenyl)oxy]phenyl}-2-propenoic acid] | 128 to 130 °C
14 | O=C(O)/C=C/c1ccc(Oc2c(-c3ccccc3)c(CCC(F)(F)F)cc3cc(O)ccc23)cc1 [Example 19, (2E)-3-(4-{[6-Hydroxy-2-phenyl-3-(3,3,3-trifluoropropyl)-1-naphthalenyl]oxy}phenyl)-2-propenoic acid] | 118 to 120 °C
15 | CCCCc1cc2ccccc2c(Oc2ccc(/C=C/C(=O)O)cc2)c1-c1ccccc1 [Example 26, (2E)-3-{4-[(3-Butyl-2-phenyl-1-naphthalenyl)oxy]phenyl}-2-propenoic acid] | 160 to 161 °C
16 | CCc1cc2cc(O)ccc2c(Oc2ccc(/C=C/C(=O)O)cc2)c1-c1ccccc1 [Example 11, (2E)-3-{4-[(3-Ethyl-6-hydroxy-2-phenyl-1-naphthalenyl)oxy]phenyl}-2-propenoic acid] | 188 to 190 °C
17 | CCCCc1cc2ccccc2c(Oc2ccc(/C=C/C(=O)O)cc2)c1-c1ccc(F)cc1 [Example 24, (2E)-3-(4-{[3-Butyl-2-(4-fluorophenyl)-1-naphthalenyl]oxy}phenyl)-2-propenoic acid] | 169 to 170 °C
18 | CCCc1cc2cc(O)c(F)cc2c(Oc2ccc(/C=C/C(N)=O)cc2)c1-c1ccccc1 [Example 25, (2E)-3-{4-[(7-Fluoro-6-hydroxy-2-phenyl-3-propyl-1-naphthalenyl)oxy]phenyl}-2-propenamide] | 121 to 124 °C
19 | CCc1cc2cc(O)ccc2c(Oc2ccc(/C=C/C(=O)N3CCN(C)CC3)cc2)c1-c1ccccc1 [Example 12, 7-Ethyl-5-({4-[(1E)-3-(4-methyl-1-piperazinyl)-3-oxo-1-propen-1-yl]phenyl}oxy)-6-phenyl-2-naphthalenol] | 195 to 196 °C
20 | Cc1cc2ccccc2c(Oc2ccc(/C=C/C(=O)O)cc2)c1-c1ccccc1 [Example 15, (2E)-3-{4-[(3-Methyl-2-phenyl-1-naphthalenyl)oxy]phenyl}-2-propenoic acid] | 224 to 225 °C
